Experimental data: patent publication US5510356A, “Bisquinolines and processes for their production and use to treat malaria” (priority 1991, dated 1996)

What was measured:
[1] = system: P. falciparum clone W-2 (Indochina); format: cell-based, Plasmodium falciparum
Procedure: (§1) In vitro activity against P. falciparum was determined using a modification of the semiautomated microdilution technique of Desjardins et al. (1979) and Milhous et al. (1985). Two P. falciparum malaria parasite clones, designated as Sierra Leone (D-6) and Indochina (W-2), are used in susceptibility testing. The former is resistant to mefloquine, and the latter to CQ, pyrimethamine, sulfadoxine, and quinine. Test compounds are dissolved in dimethylsulfoxide, and solutions serially diluted with culture media. Erythrocytes with 0.25 to 0.5% parasitemia are added to each well of a 96-well microdilution plate to give a final hematocrit of 1.5%. […] Results are reported as […] (ng/mL) values. For a complete description of this assay, see Milhous et al. (1985) and Lin et al. (1987).

[2] = system: P. falciparum clone D-6 (Sierra Leone); format: cell-based, Plasmodium falciparum; details: D-6 clone (resistant to mefloquine)
Procedure: as §1

[3] = system: P. berghei (strain KBG 173); test: In vivo activity against P. berghei in mice, single subcutaneous dose 3 days after infection; design: species or system Plasmodium berghei; mice; details: for P. berghei T-C: single dose 3 days post infection, n = 5
Procedure: In vivo activity against P. berghei was obtained against a drug-sensitive strain of P. berghei (strain KBG 173) (Osdene et al., 1967). Each test compound is administered subcutaneous to five male mice per dilution in a single subcutaneous dose 3 days after infection. Results are expressed in T-C values which indicate the mean survival time of the treated mice beyond that of the control animals; untreated mice survive on average 6.2 days. Compounds are classified as active (A) when the mean survival time of the treated mice is twice that of the controls (>6.2 days), and curative (C) when one or more test animals live 60 days post-infection. Deaths from 0-2 days post-treatment are attributed to toxicity (T).

[4] = system: P. falciparum; test: In vitro activity against P. falciparum (both clones, D-6 and W-2); format: cell-based, Plasmodium falciparum
Procedure: as §1

[5] = Solubility in DMSO (noted in NMR work); details: 13C NMR spectra not obtainable

## Clc1ccc2c(NCCNc3ccnc4cc(Cl)ccc34)ccnc2c1 [Compound 1, N^1 N^2, -Bis(7-chloroquinolin-4-y1)ethane-1,2-diamine]
[1]
  P. falciparum IC50 (nM) W-2: 27.0 nM
[2]
  P. falciparum IC50 (nM) D-6: 17.3 nM
[3]
  in vivo activity against P. berghei (in words): without activity in vivo
[3]; 40 mg/kg s.c.
  P. berghei T-C: 0.0 days
[3]; 160 mg/kg s.c.
  P. berghei T-C: 0.4 days
[3]; 640 mg/kg s.c.
  P. berghei T-C: 1.4 days
[4]
  in vitro activity against P. falciparum (in words): approximately an order of magnitude less potent in vitro
[4]; IC50 (W2)/IC50 (D6) ratio
  Resistance Index: 1.6
[4]; general statement, refers to Table I
  antimalarial activity (in words): antimalarial activity
[5]
  solubility in DMSO: low solubilities in DMSO
